Data on one compound can be found in US11324750B2, “Compositions and methods for the treatment of severe acute respiratory syndrome coronavirus 2 (SARS-CoV-2) infection” (Children's Hospital Medical Center, priority 2020, dated 2022).

One experiment deals with 48 cytokines in serum. Briefly: Serum cytokines, Bio-Plex Pro Human Cytokines 48-Plex Screening assay. The note with it: in vivo.
The test system of the next experiment is SARS-CoV-2. The experiment in a line: Virus clearance time by RT-PCR on throat swab. The class given is in vivo. The note with it: median (IQR); patients with positive RT-PCR on throat swab; P 0.85 (table), P=0.65.
The test system of experiment [1] is SARS-CoV-2-specific IgM and IgG. The experiment in a line: SARS-CoV-2-specific IgM and IgG detection (CLIA). It is filed as in vivo, human. The note with it: vs control group. From the text: SARS-CoV-2-specific IgM and IgG detection. The SARS-CoV-2-specific IgM and IgG were detected by paramagnetic particle chemiluminescent immunoassay (CLIA) using iFlash-SARS-CoV-2 IgM/IgG assay kit (SHENZHEN YHLO BIOTECH CO., LTD.) and iFlash Immunoassay Analyzer (SHENZHEN YHLO BIOTECH CO., LTD.)
Procedures. The first day of randomization was designated as D0. The second and the fourth day after randomization were designated D1 and D3, respectively. Dx referred to the day when either disease progressed according to the Chinese management guideline for COVID-19 (version 5.0) or defined as a one-category increase on the seven-category scale. Dend was the day before discharge. The enrolled patients were randomly separated into two groups: the treatment group (group B) received oral intake of ruxolitinib (Jakafi®, Novartis Pharma Stein AG, Switzerland) 5 mg twice a day plus standard-of-care (SoC); the control group (group A) is treated with placebo twice a day with SoC. […] Safety was monitored daily by two independent senior physicians from the trial center. […] The CT features of improvement were evaluated by two independent senior radiologists blindly, which should at least meet one of the following criteria: decreased presence of ground-glass opacities (GGO), decreased lung opacification, reduced density of consolidation or decreased pleural effusion with existence of fibrous stripes^29. […]

“Also recorded” adds a separate entry of the source.

Regarding `N#CC[C@H](C1CCCC1)n1cc(-c2ncnc3[nH]ccc23)cn1` [Ruxolitinib, (3R)-3-cyclopentyl-3-[4-(7H-pyrrolo[2,3-d]pyrimidin-4-yl)pyrazol-1-yl]propanenitrile], in the experiment with 48 cytokines in serum, the “Average fold-change of 48 cytokines” value was found to be 0.466, the “Average values of 48 cytokines” value is “decreased significantly; also recorded: all average values of 48 cytokines decreased”, the “Level of MIP-1α” value was “markedly decreased” and the “Level of interleukin-6 (IL-6)” value is recorded as “markedly decreased”. In addition, in the experiment on 48 cytokines in serum, the “Level of interleukin-12 (IL-12) (p40)” value is recorded as “markedly decreased”, the “Level of macrophage inflammatory protein 1β (MIP-1β)” value is “markedly decreased”, the “Level of macrophage migration inhibitory factor (MIF)” value was “markedly decreased” and the “Level of nerve growth factor β (NGF-β)” value is recorded as “markedly decreased”. Besides, in the experiment on 48 cytokines in serum, the “Level of vascular endothelial growth factor (VEGF)” value was “markedly decreased”. This compound showed a Virus clearance time with SARS-CoV-2 of 13 days. Moreover, the “Peak IgG against SARS-CoV-2” value in experiment [1] is given as “no significant difference”. In experiment [1] (P=0.039), the “Peak level of anti-IgM of SARS-CoV-2” value is given as “profoundly higher”.
